The values that follow come from patent US9902728B2, “Pyrrolo and pyrazolopyrimidines as ubiquitin-specific protease 7 inhibitors” (Forma Therapeutics, Inc., priority 2014, dated 2018).

The target in one assay is T1, USP7 (Homo sapiens, UniProt Q93009).
T1 construct: USP7, construct USP7 (208-1102) 6*His, Viva Biotech; 6xHis (C); purchased Viva Biotech
T1 sequence (Q93009 208-1102): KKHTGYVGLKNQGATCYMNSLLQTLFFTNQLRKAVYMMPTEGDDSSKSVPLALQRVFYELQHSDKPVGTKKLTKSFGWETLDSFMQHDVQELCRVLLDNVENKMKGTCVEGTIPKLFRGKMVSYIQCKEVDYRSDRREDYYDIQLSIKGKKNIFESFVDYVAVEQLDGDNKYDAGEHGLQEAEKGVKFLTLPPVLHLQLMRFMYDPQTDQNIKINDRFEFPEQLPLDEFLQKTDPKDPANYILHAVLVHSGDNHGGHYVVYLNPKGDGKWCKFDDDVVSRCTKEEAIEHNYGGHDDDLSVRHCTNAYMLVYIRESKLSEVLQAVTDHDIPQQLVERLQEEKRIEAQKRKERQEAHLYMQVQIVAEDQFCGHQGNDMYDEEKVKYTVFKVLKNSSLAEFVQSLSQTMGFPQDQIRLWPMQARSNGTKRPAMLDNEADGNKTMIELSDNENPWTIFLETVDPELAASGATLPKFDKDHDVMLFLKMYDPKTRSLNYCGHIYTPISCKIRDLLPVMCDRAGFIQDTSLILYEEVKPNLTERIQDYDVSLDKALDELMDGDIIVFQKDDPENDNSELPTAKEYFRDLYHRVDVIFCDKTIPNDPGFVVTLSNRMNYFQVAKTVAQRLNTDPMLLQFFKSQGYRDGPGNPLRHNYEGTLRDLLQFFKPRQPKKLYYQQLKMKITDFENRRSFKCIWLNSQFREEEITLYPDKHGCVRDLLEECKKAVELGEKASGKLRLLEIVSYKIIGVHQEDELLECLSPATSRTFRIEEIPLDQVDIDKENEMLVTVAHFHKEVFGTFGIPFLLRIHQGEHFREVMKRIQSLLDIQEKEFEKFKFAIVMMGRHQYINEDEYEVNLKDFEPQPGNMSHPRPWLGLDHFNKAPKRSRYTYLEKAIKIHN
The experiment in a line: USP7 Assay A (Ubitquin-Rhodamine 110 Assay). Format: biochemical. The following applies: USP7 activity in USP7 assay A and B (table does not say which assay per compound); read-out: USP7_IC50. An outline of the steps:
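Ub-Rh110 cleavage in 20 mM Tris-HCl pH 8.0 with 1 mM GSH, 0.03% BGG, 0.01% Triton X-100; compound preincubated with enzyme 30 min before substrate.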
On to `O=C(C1CCC(Oc2ccccn2)CC1)N1CCC(O)(Cn2cnc3c(cnn3-c3ccc(CO)cc3)c2=O)CC1` (stereo not drawn) [Compound I-853], for which the IC50 lay in the range of 200 to 1000 nM. As to `O=C(C1CCC(Oc2ccccn2)CC1)N1CCC(O)(Cn2cnc3c(ccn3-c3ccc(F)cc3)c2=O)CC1` (stereo not drawn) [Compound I-1124], the IC50 was less than 200 nM.

Take `Cc1nnnn1-c1ccc(C(=O)N2CCC(O)(Cn3cnc4c(cnn4-c4ccc(Cl)cc4)c3=O)CC2)cc1` [Compound I-1089]: the IC50 was in the range of 200 to 1000 nM. Consider `C[C@H](CC(=O)N1CCC(O)(Cn2cnc3c(cnn3-c3ccc(F)cc3)c2=O)CC1)n1ccc(F)n1` [Compound I-1028], for which the IC50 was less than 200 nM. Turning to `Cc1cc(N[C@H]2CC[C@@H](C(=O)N3CCC(O)(Cn4cnc5c(cnn5-c5ccc(F)cc5)c4=O)CC3)CC2)no1` [Compound I-807], the IC50 lay in the range of 1000 to 10000 nM. Take `Cc1ccc(-n2ncc3c(=O)n(CC4(O)CCN(C(=O)C[C@H](C(F)F)n5ccc(F)n5)CC4)cnc32)cc1` [Compound I-796]: the IC50 is less than 200 nM. On to `Cn1ncc2c1CN(C(=O)N1CCC(O)(Cn3cnc4c(cnn4-c4ccc(F)cc4)c3=O)CC1)CC2` [Compound I-762], for which the IC50 lay in the range of 1000 to 10000 nM. For the molecule `CC1(C(=O)N2CCC(O)(Cn3cnc4c(cnn4-c4cccc(N5CC(O)C5)c4)c3=O)CC2)CC1` [Compound I-1678], the IC50 fell in the range of 200 to 1000 nM.

Regarding `COCCN1CCN(c2cccc(-n3ncc4c(=O)n(CC5(O)CCN(C(=O)C6(C)CC6)CC5)cnc43)c2)CC1` [Compound I-1750], the IC50 was in the range of 200 to 1000 nM. As for `Cc1ncc(C(=O)N2CCC(O)(Cn3cnc4c(ccn4-c4ccc(F)cc4)c3=O)CC2)o1` [Compound I-1077], the IC50 is 200 to 1000 nM. As for `O=C(C[C@H](C(F)F)n1ccc(F)n1)N1CCC(O)(Cn2cnc3c(ccn3-c3ccc(F)cc3)c2=O)CC1` [Compound I-1125], the IC50 lay in the range of 200 to 1000 nM. `C[C@@H](c1ccccc1)c1nn(C)cc1C(=O)N1CCC(O)(Cn2cnc3c(cnn3-c3ccc(F)cc3)c2=O)CC1` [Compound I-1163]: the IC50 was in the range of 1000 to 10000 nM. For `CC1(C(=O)N2CCC(O)(Cn3cnc4c(cnn4-c4ccc(N5CC6CC(C5)O6)cc4)c3=O)CC2)CC1` [Compound I-1643], the IC50 is 200 to 1000 nM.

`CC1(C(=O)N2CCC(O)(Cn3cnc4c(cnn4-c4ccc(N5CCC6(CC5)CC(F)(F)C6)cc4)c3=O)CC2)CCC1` [Compound I-1718]: the IC50 was less than 200 nM. As for `CN1CCN(c2cnn(-c3ccc(-n4ncc5c(=O)n(CC6(O)CCN(C(=O)C7CC7)CC6)cnc54)cc3)c2)CC1` [Compound I-975, 5-[(1-cyclopropanecarbonyl-4-hydroxypiperidin-4-yl)methyl]-1-{4-[4-(4-methylpiperazin-1-yl)-1H-pyrazol-1-yl]phenyl}-1H,4H,5H-pyrazolo[3,4-d]pyrimidin-4-one], the IC50 fell in the range of 200 to 1000 nM. On to `Cn1ncc2c(=O)n(CC3(O)CCN(C(=O)CC(C(F)F)n4ccc(F)n4)CC3)cnc21` (single isomer, unassigned) [Compound I-1697], for which the IC50 is less than 200 nM. The same measure, in the same setting: next, `Cn1cc(Oc2ccc(C(=O)N3CCC(O)(Cn4cnc5c(cnn5-c5ccc(F)cc5)c4=O)CC3)cc2)cn1` [Compound I-562]: 1000 to 10000 nM; `O=C(c1nnc(C2CC2)o1)N1CCC(O)(Cn2cnc3c(cnn3-c3ccc(Cl)cc3)c2=O)CC1` [Compound I-1091]: 1000 to 10000 nM.

As for `O=C(C1CCC(Nc2cccc(F)n2)CC1)N1CCC(O)(Cn2cnc3c(cnn3-c3ccc(F)cc3)c2=O)CC1` (stereo not drawn) [Compound I-1024], the IC50 was less than 200 nM. For the molecule `CC1(COc2ccc(-n3ncc4c(=O)n(CC5(O)CCN(C(=O)c6cnc(C7CC7)o6)CC5)cnc43)cc2)CCC1` [Compound I-1508], the IC50 was 200 to 1000 nM. As to `Cc1cnc(-c2ccc(C(=O)N3CCC(O)(Cn4cnc5c(cnn5-c5ccc(Cl)cc5)c4=O)CC3)cc2)n1C` [Compound I-1099], the IC50 is 1000 to 10000 nM. Same read-out and setting: the figure for `O=C(C1CCC(Nc2ccccc2)CC1)N1CCC(O)(Cn2cnc3c(cnn3-c3ccc(F)cc3)c2=O)CC1` (stereo not drawn) [Compound I-768] is less than 200 nM. For the molecule `Cn1nccc1OC1CCC(C(=O)N2CCC(O)(Cn3cnc4c(cnn4-c4ccc(F)cc4)c3=O)CC2)CC1` (stereo not drawn) [Compound I-1114], the IC50 lay in the range of 1000 to 10000 nM. For `Cn1ccc(NC2CCC(C(=O)N3CCC(O)(Cn4cnc5c(cnn5-c5ccc(F)cc5)c4=O)CC3)CC2)n1` (stereo not drawn) [Compound I-765], the IC50 lay within 1000 to 10000 nM. Take `CN[C@H]1CCN(c2ccc(-c3ccc(-n4ncc5c(=O)n(CC6(O)CCN(C(=O)C7CC7)CC6)cnc54)cc3)cc2)C1` [Compound I-689]: the IC50 is less than 200 nM. As to `Cn1cc(OC2CCN(C(=O)N3CCC(O)(Cn4cnc5c(cnn5-c5ccc(F)cc5)c4=O)CC3)CC2)cn1` [Compound I-923], the IC50 fell in the range of 1000 to 10000 nM. Turning to `O=C(c1cccn1Cc1cccc(F)c1)N1CCC(O)(Cn2cnc3c(cnn3-c3ccc(F)cc3)c2=O)CC1` [Compound I-560], the IC50 was 200 to 1000 nM. Regarding `O=C(C1CCC(Oc2ncccn2)CC1)N1CCC(O)(Cn2cnc3c(cnn3-c3ccc(F)cc3)c2=O)CC1` (stereo not drawn) [Compound I-747], the IC50 lay within 1000 to 10000 nM.

Regarding `CN1CCN(c2cccc(-n3ccc4c(=O)n(CC5(O)CCN(C(=O)C[C@H](C(F)F)n6cccn6)CC5)cnc43)c2)CC1` [Compound I-792], the IC50 was 200 to 1000 nM. Still for that read-out and setting: next, `COC1CCC(Oc2ccc(-n3ncc4c(=O)n(CC5(O)CCN(C(=O)C6(C)CC6)CC5)cnc43)cc2)CC1` (single isomer, unassigned) [Compounds I-1116]: 200 to 1000 nM.

Staying with this assay, now noted: USP7 assay A and B (table does not say which assay per compound); read-out: USP7_IC50.
For the molecule `CC(C)N1CCC(c2ccc(-n3ncc4c(=O)n(CC5(O)CCN(C(=O)N(C)C)CC5)cnc43)cc2)CC1` [Compound I-992], the IC50 was 1000 to 10000 nM. As to `CC1(C(=O)N2CCC(O)(Cn3cnc4c(cnn4-c4ccccc4)c3=O)CC2)CC1` [Compound I-271], the IC50 was in the range of 1000 to 10000 nM. On to `O=C(c1ccc(OC(F)F)cc1)N1CCC(O)(Cn2cnc3c(cnn3-c3ccc(CO)cc3)c2=O)CC1` [Compound I-851], for which the IC50 fell in the range of 200 to 1000 nM. As to `O=C(C1CC1)N1CCC(O)(Cn2cnc3c(cnn3-c3cccc(Nc4ccncc4)c3)c2=O)CC1` [Compound I-1232], the IC50 lay in the range of 1000 to 10000 nM.

For the molecule `O=C(c1cnc(C2CC2)o1)N1CCC(O)(Cn2cnc3c(cnn3-c3ccc(-c4ccccc4)cc3)c2=O)CC1` [Compound I-1659], the IC50 is 200 to 1000 nM. On the same count and under the same terms, next, `COc1ccc(-n2ncc3c(=O)n(C(C)C4(O)CCN(C(=O)c5ccc(F)cc5)CC4)cnc32)cc1` (stereo not drawn) [Compound I-624]: 200 to 1000 nM; `C[C@@H](n1cnc2c(cnn2-c2ccc(F)cc2)c1=O)C1(O)CCN(C(=O)c2ccc(F)cc2)CC1` [Compound I-44]: 1000 to 10000 nM. As to `O=C(NCCO)c1cccc(-c2cccc(-n3ncc4c(=O)n(CC5(O)CCN(C(=O)C6CC6)CC5)cnc43)c2)c1` [Compound I-409], the IC50 was in the range of 1000 to 10000 nM. Same read-out and setting: the figure for `O=C(C[C@H](C(F)F)n1cccn1)N1CCC(O)(Cn2cnc3c(cnn3-c3ccc(F)cc3)c2=O)CC1` [Compound I-517] is 1000 to 10000 nM; for `O=C(c1ccc(C2CC2)cc1)N1CCC(O)(Cn2cnc3c(cnn3-c3ccccc3)c2=O)CC1` [Compound I-156] it is 200 to 1000 nM; for `O=C(c1ccccc1)N1CCC(O)(Cn2cnc3c(cnn3-c3cccc(CO)c3)c2=O)CC1` [Compound I-281] it is 1000 to 10000 nM.

As to `O=C(CC(c1ccccc1)C(F)F)N1CCC(O)(Cn2cnc3c(cnn3-c3ccccc3)c2=O)CC1` (stereo not drawn) [Compound I-1102], the IC50 is less than 200 nM. As for `CN1CCC(c2ccc(C(=O)N3CCC(O)(Cn4cnc5c(cnn5-c5ccc(F)cc5)c4=O)CC3)cc2)CC1` [Compound I-605], the IC50 is greater than 10000 nM. Regarding `Cc1ncc(C(=O)N2CCC(O)(Cn3cnc4c(cnn4-c4ccc(Cl)cc4)c3=O)CC2)o1` [Compound I-1524], the IC50 is 1000 to 10000 nM. Same read-out and setting: the figure for `CN(C)C(=O)N1CCC(O)(Cn2cnc3c(cnn3-c3cccc(-n4cc(Cl)cn4)c3)c2=O)CC1` [Compound I-1666] is greater than 10000 nM; for `O=C(C1CC1)N1CCC(O)(Cn2cnc3c(cnn3-c3ccc(N4CCCC4)cc3)c2=O)CC1` [Compound I-1199] it is 1000 to 10000 nM. The same measure, in the same setting: the figure for `CS(=N)(=O)c1ccc(-n2ncc3c(=O)n(CC4(O)CCN(C(=O)c5ccc(F)cc5)CC4)cnc32)cc1` (single isomer, unassigned) [Compound I-998, 5-((1-(4-fluorobenzoyl)-4-hydroxypiperidin-4-yl)methyl)-1-(4-(S-methylsulfonimidoyl)phenyl)-1,5-dihydro-4H-pyrazolo[3,4-d]pyrimidin-4-one] is 1000 to 10000 nM; for `O=C(N1CCC(O)(Cn2cnc3c(cnn3-c3ccc(F)cc3)c2=O)CC1)C12CC(C(F)(F)F)(C1)C2` [Compound I-423] it is 1000 to 10000 nM; for `CC(C)OCCNc1cccc(-n2ncc3c(=O)n(CC4(O)CCN(C(=O)C5CC5)CC4)cnc32)c1` [Compound I-1196] it is 1000 to 10000 nM. Take `CC(CC(=O)N1CCC(O)(Cn2cnc3c(cnn3C)c2=O)CC1)c1ccc(F)cc1` (stereo not drawn) [Compound I-78]: the IC50 fell in the range of 200 to 1000 nM.

As to `C=CC(=O)N1CCC1C(=O)N1CCC(O)(Cn2cnc3c(cnn3-c3ccc(-c4ccccc4)cc3)c2=O)CC1` (stereo not drawn) [Compound I-657], the IC50 fell in the range of 200 to 1000 nM. As to `CC(CC(=O)N1CCC(O)(Cn2cnc3c(cnn3C)c2=O)CC1)n1cccc1` (stereo not drawn) [Compound I-105], the IC50 was in the range of 200 to 1000 nM. As for `C[C@H](CC(=O)N1CCC(O)(Cn2cnc3c(cnn3-c3ccc(F)cc3)c2=O)CC1)n1ncc2c1CCC2` [Compound I-522], the IC50 is greater than 10000 nM.

`CNC(=O)N1CCC(O)(Cn2cnc3c(cnn3-c3ccc(-c4ccc(F)cc4)cc3)c2=O)CC1` [Compound I-655]: the IC50 is 1000 to 10000 nM. Consider `Cc1ccc(-n2ncc3c(=O)n(CC4(O)CCN(C(=O)C[C@@H](C)c5ccccc5)CC4)cnc32)cc1` [Compound I-68], for which the IC50 is less than 200 nM.

As for `O=C(NC1CNCC1F)N1CCC(O)(Cn2cnc3c(cnn3-c3ccc(-c4ccccc4)cc3)c2=O)CC1` (stereo not drawn) [Compound I-662], the IC50 was greater than 10000 nM.

Consider `O=C(c1ccnc(Cl)c1)N1CCC(O)(Cn2cnc3c(cnn3-c3ccccc3)c2=O)CC1` [Compound I-287], for which the IC50 fell in the range of 1000 to 10000 nM.
